Data reported in the supplement of paper PMC10307832.

Tests used:
Assay in all cases: relative viability (nuclei count vs DMSO), 5 days (fraction); higher = more cells survive
Motesanib + Palbociclib = compound: CC1(C)CNc2cc(NC(=O)c3cccnc3NCc3ccncc3)ccc21 [Motesanib] + CC(=O)c1c(C)c2cnc(Nc3ccc(N4CCNCC4)cn3)nc2n(C2CCCC2)c1=O [Palbociclib] (partner 0.5 µM)
In short: (§1)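 Cells from lung cancer lines were seeded into 1536-well plates and, one day later, dosed by pin tool. Treatments were either a single drug or a fixed dose of an anchor drug with five library-drug doses (not always all listed) in √10 steps. After 5 days, nuclei were stained in a one-step fixation (final 0.05% Triton X-100, 1% formaldehyde, 1 ug/ml Hoechst) and counted on 4× images, and relative viability is the treated-to-vehicle nuclei ratio, as the median of duplicate plates.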

Motesanib + Navitoclax = compound: CC1(C)CNc2cc(NC(=O)c3cccnc3NCc3ccncc3)ccc21 [Motesanib] + CC1(C)CCC(c2ccc(Cl)cc2)=C(CN2CCN(c3ccc(C(=O)NS(=O)(=O)c4ccc(N[C@H](CCN5CCOCC5)CSc5ccccc5)c(S(=O)(=O)C(F)(F)F)c4)cc3)CC2)C1 [Navitoclax] (partner 0.5 µM)
In short: as §1

[1] = compound: C[C@@]1(C(=O)Nc2ccc(F)nc2)CCCN1c1nc(Nc2cc(C3CC3)n[nH]2)c2cccn2n1 + C[C@@H](Oc1cc(-c2cnn(C3CCNCC3)c2)cnc1N)c1c(Cl)ccc(F)c1Cl [Crizotinib] (partner 1 µM)
In short: as §1

[2] = compound: C[C@@]1(C(=O)Nc2ccc(F)nc2)CCCN1c1nc(Nc2cc(C3CC3)n[nH]2)c2cccn2n1 + C[C@]1(O)C[C@@H](c2nc(-c3ccc4ccc(-c5ccccc5)nc4c3)c3c(N)nccn32)C1 [Linsitinib] (partner 1 µM)
In short: as §1

Cell Line	relative viability (Motesanib + Palbociclib; first compound 0.01 µM)	relative viability (Motesanib + Palbociclib; first compound 0.03162 µM)	relative viability (Motesanib + Palbociclib; first compound 0.1 µM)	relative viability (Motesanib + Palbociclib; first compound 0.3162 µM)	relative viability (Motesanib + Palbociclib; first compound 1 µM)	relative viability (Motesanib + Navitoclax; first compound 0.01 µM)	relative viability (Motesanib + Navitoclax; first compound 0.03162 µM)	relative viability (Motesanib + Navitoclax; first compound 0.1 µM)	relative viability (Motesanib + Navitoclax; first compound 0.3162 µM)	relative viability (Motesanib + Navitoclax; first compound 1 µM)	relative viability ([1]; first compound 0.04 µM)	relative viability ([1]; first compound 0.1265 µM)	relative viability ([1]; first compound 0.4 µM)	relative viability ([1]; first compound 1.265 µM)	relative viability ([2]; first compound 0.04 µM)	relative viability ([2]; first compound 0.1265 µM)	relative viability ([2]; first compound 0.4 µM)	relative viability ([2]; first compound 1.265 µM)
NCI-H2228	0.664	0.8	0.589	0.937	0.613	1.13	0.913	0.632	1.04	1.12	0.395	0.342	0.262	0.255	0.679	0.616	0.69	0.769
NCI-H2347	0.452	0.428	0.404	0.469	0.437	0.816	0.751	0.712	0.882	1.02	0.706	0.75	0.629	0.569	0.988	0.736	0.915	0.893
NCI-H2405	0.511	0.499	0.535	0.562	0.52		0.863	0.856	0.892	0.965	0.862	0.759	0.649	0.889	1.04	0.91	0.779	0.766
NCI-H3122	0.186	0.194	0.213	0.217	0.161	0.937	1.04	0.981	1.06	1.04	0.212	0.2	0.182	0.222	1.04	1.1	1.01	1.06
PC-3 [JPC-3]	0.558	0.544	0.568	0.605	0.559	0.83	0.883	0.802	0.779	0.827	1.03	0.921	0.905	1.01	0.972	0.94	0.964	0.934
PC-14	0.465	0.539	0.539	0.512	0.593	1.03	1.06	1	1.06	1.05	0.901	0.806	0.758	0.763	1.09	0.814	0.825	1.01
RERF-LC-KJ	1.11	0.968	1.18	1.12	1.19	0.705	1.01	1.29	0.811	0.877	0.874	0.733	0.732	0.801	0.868	0.818	0.838	0.857
SK-LU-1	0.386	0.438	0.44	0.409	0.401	0.611	0.695	0.925	0.919	1.13	0.824	0.875	0.715	0.467	1.15	1.13	0.74	0.913
SK-MES-1	0.322	0.319	0.316	0.331	0.351	1.13	1.15	1.23	1.24	1.21	1.09	0.84	0.861	0.879	1.03	0.95	0.957	1.05
